Data reported in the Biogen ADME set (Fang et al. 2023).
≈ marks a conversion by molar mass, not a printed value.

Conditions: for aqueous solubility: pH 6.8

Row | MDR1-MDCK efflux ratio | intrinsic clearance, human liver microsomes [mL/min/kg] | intrinsic clearance, rat liver microsomes [mL/min/kg] | aqueous solubility [µg/mL] | fraction unbound, human plasma | fraction unbound, rat plasma | SMILES
1 | 9.31 | 155 | 1170 | 1.5 (≈ 3.61 µM) |  |  | CN1C(=O)COc2ccc(NC(=O)CCN3C(=O)COc4ccc(Cl)cc43)cc21
2 |  | 25.7 | 230 |  |  |  | Cc1nc(-c2ccccc2)c(C(=O)Nc2cc(Cl)cc(Cl)c2)s1
3 | 1.46 | 6.69 | 76.3 | 36.7 (≈ 137 µM) |  |  | CC(C)CN1CC[C@H](c2nc3ccc(C#N)cc3[nH]2)C1
4 | 0.981 | ≤ 4.74 | 359 |  |  |  | COc1ccc(C)nc1-c1ccc(OC)c(OC)c1OC
5 |  | 8.83 | 105 |  |  |  | Cn1ccc(C(=O)NCCc2cc3nc(-c4ccncc4)ccn3n2)n1
6 | 54.7 | 75.5 | 511 |  |  |  | COc1ccccc1-n1cc(CNC(=O)N(C)Cc2c(C)nn(C)c2C)cn1
7 | 2.25 | 6.9 | 165 | 18.6 (≈ 61 µM) |  |  | Cc1cnc(-n2cnnc2)c(-c2cccc(Cl)c2Cl)c1
8 | 0.82 | ≤ 4.74 | 112 | 53 (≈ 173 µM) |  |  | CCOC(=O)N1CCN(C(=O)c2ccc3c(c2)OCO3)CC1
9 | 0.507 | 128 | 2020 | 52.9 (≈ 171 µM) |  |  | N#Cc1cccc(CN2CCOC[C@H](Oc3ccccc3)C2)c1
10 |  | ≤ 4.74 | ≤ 10.7 |  |  |  | Cc1nn(C)c(C)c1CNc1ccc(N2CCN(C)CC2)nc1
11 |  | 58.9 | 125 |  |  |  | Cc1cc(-n2nc(C)cc2N)nc(C)n1
12 | 0.609 | 164 | 185 |  |  |  | N#Cc1ccnc(Nc2ccc(F)cc2)c1
13 | 0.679 | 49.2 | 663 | 15.9 (≈ 44.2 µM) |  |  | Cc1ccc(-c2nnc([C@H]3CCN(Cc4cc5ccccc5o4)C3)o2)cc1
14 | 0.666 | 15 | 290 |  |  |  | CN(Cc1ccc(OC(F)(F)F)cc1)Cc1cn(C)nn1
15 | 15.2 | 14.3 | 183 | 56.4 (≈ 166 µM) |  |  | CCCc1cc(N2CCc3c(nc(C(C)C)n3C)C2)n2ncnc2n1
16 | 0.395 | 65.9 | 1990 |  |  |  | CCCN(CCC1=CCCCC1)C(=O)c1cc(C(F)F)n[nH]1
17 | 0.709 | 33.2 | 600 |  |  |  | Cc1nnc2ccc(N3CCC4(CCCCC4)C3)nn12
18 |  | 23.1 | 180 |  |  |  | COCc1ncc(CN2CCC(Oc3ccccc3C)CC2)cn1
19 | 531 | 96.8 | 765 |  |  |  | c1nn(C2CCOCC2)cc1Nc1ncc2nnn(-c3ccc4cn[nH]c4c3)c2n1
20 | 0.599 | 10.9 | 106 |  |  |  | COC(C)(C)C(=O)Nc1ccnc(C(C)(C)C)n1

The next lines start with the compound.

Row | SMILES | MDR1-MDCK efflux ratio | intrinsic clearance, human liver microsomes [mL/min/kg] | intrinsic clearance, rat liver microsomes [mL/min/kg] | aqueous solubility [µg/mL] | fraction unbound, human plasma | fraction unbound, rat plasma
21 | c1ccc(-c2n[nH]c(C3CCN(c4cnc5ccccc5n4)CC3)n2)cc1 | 1.2 | 10.7 | 114 | 6.21 (≈ 17.4 µM) |  | 
22 | O=c1[nH]c2ccccc2n1C1CCN(Cc2nc(-c3ccsc3)no2)CC1 | 3.73 | 16.3 | 263 | 5.8 (≈ 15.2 µM) |  | 
23 | CC(C)[C@H](Nc1ncc(Cl)cn1)C(=O)N1CCCC1 | 1.08 | 15.4 | 181 | 36.2 (≈ 128 µM) |  | 
24 | COc1ccccc1C(=O)CSc1nncn1C1CC1 | 1.3 | 24.6 | 463 |  |  | 
25 | CNC(=O)c1sc2ncccc2c1[C@H]1CC[C@H](CNC(=O)CCc2ccccc2)CC1 | 33.7 | 206 | 1460 | 61.7 (≈ 142 µM) |  | 
26 | CC(=O)NC1CCC(NCCSc2ccc(C)cc2)CC1 (stereo not drawn) | 10.8 | 64.4 | 499 |  |  | 
27 | CCc1nc(C)cn2nc(-c3cc(=O)n4cc(C5CCN(C)CC5)cc(C)c4n3)cc12 | 3.62 | ≤ 4.74 | 25.7 | 17.7 (≈ 42.4 µM) | 0.0738 | 0.0392
28 | Cc1nnc(NC(C2CC2)C2CC2)c(C#N)c1C |  |  |  | 7.54 (≈ 31.1 µM) |  | 
29 | CC(Oc1ccc(Cl)cc1)C(=O)N1CCC(n2c(=O)[nH]c3ccccc32)CC1 (stereo not drawn) |  | 36.2 | 525 | 28.9 (≈ 72.4 µM) |  | 
30 | O=C(NCCc1cnn[nH]1)C1Cc2ccccc2C1 | 2.47 | ≤ 4.74 | ≤ 10.7 |  |  | 
31 | COC1(c2nc(Cc3ccccc3)no2)CCN(Cc2ncccc2Cl)CC1 | 0.76 | 123 | 1780 |  |  | 
32 | N#Cc1cccc(CN2CCC=C(CNC(=O)c3cccs3)C2)c1 | 2.25 | 56.7 | 442 | 52.2 (≈ 155 µM) |  | 
33 | COc1cccc(O[C@H]2CCN(C(=O)c3cc(-c4ccc(C)cc4)on3)CC[C@@H]2O)c1 | 0.721 | 82.3 | 1060 |  |  | 
34 | CN1N=C(SCc2ccc(Cl)cc2Cl)Sc2c1cnn(C)c2=O |  | 137 | 1890 |  |  | 
35 | Cn1cc(-c2ccc(-c3cncc(Cl)c3N3CCC4(CCNC4=O)CC3)cc2)cn1 | 61.1 | 65.7 | 308 | 3.11 (≈ 7.37 µM) |  | 
36 | CN(C(=O)OC(C)(C)C)c1ccc2ccccc2n1 | 0.472 |  |  | 0.28 (≈ 1.08 µM) |  | 
37 | COCCc1nc(CCCn2cccn2)n(C2Cc3ccccc3C2)n1 | 9.86 | 25.1 | 550 | 21.4 (≈ 60.9 µM) |  | 
38 | Cc1ccc(S(=O)(=O)Nc2ccc3c(c2)CCCN3C(=O)c2cccs2)cc1C |  | 364 | 2380 |  |  | 
39 | c1ccc(-c2ncc(CNc3ncccn3)s2)nc1 | 0.641 | 40.5 | 2070 |  |  | 

Row | SMILES | MDR1-MDCK efflux ratio | intrinsic clearance, human liver microsomes [mL/min/kg] | intrinsic clearance, rat liver microsomes [mL/min/kg] | aqueous solubility [µg/mL] | fraction unbound, human plasma | fraction unbound, rat plasma
40 | CNC(=O)c1cccc(NC(=O)N2CCC(Oc3ccccc3Cl)CC2)c1 | 20 | 6.6 | 223 | 68.8 (≈ 177 µM) | 0.117 | 
41 | Cc1cnc(CNC2(c3nccs3)CCCC2)cn1 |  | ≤ 4.74 | 245 |  |  | 
42 | CC(C)c1nc(/C=C/c2cnn(C)c2)ncc1C(=O)O |  | ≤ 4.74 | ≤ 10.7 |  |  | 
43 | CC(C)n1cnnc1SCOCc1ccccc1 | 0.711 | ≤ 4.74 | 219 |  |  | 
44 | Cc1cc(C(=O)NCC2CCN(c3ccc4ccccc4n3)CC2)cnc1C | 2.19 | 58.1 | 477 |  |  | 
45 | Cc1sc2nc(CN3CCOCC3)nc(N3CCN(c4ccncc4)CC3)c2c1C | 28.9 | 18.3 | 281 | 76.6 (≈ 180 µM) |  | 
46 | CN(C/C=C/C(=O)N1CCC[C@@H](n2nc(-c3ccc(Oc4ccccc4)cc3)c3c(N)ncnc32)C1)CCCCNC(=O)CCCC(=O)NCCCOCCOCCOCCCNC(=O)CCCC[C@@H]1SC[C@@H]2NC(=O)N[C@@H]21 |  | 127 | 87.3 |  |  | 
47 | O=C(C1CC1c1ccccc1F)N1CCC(n2c(=O)[nH]c3ccccc32)CC1 (stereo not drawn) |  | 47.2 | 1190 | 49.9 (≈ 131 µM) |  | 
48 | C[C@@H](c1ccc2ccc(O[C@H]3CC[C@@H](C(F)(F)F)CC3)c(C(F)(F)F)c2c1)N1C2CCC1CC(C(=O)O)C2 (stereo partly drawn) | 51.8 | 7.58 | 35.6 | 73.2 (≈ 135 µM) |  | 
49 | Cc1cc(NC(=O)c2cc(F)cc(F)c2)sn1 |  | 130 | 77.3 |  |  | 
50 | CCc1nc(N2CC(CO)C2)c2ccsc2n1 | 1.33 | 10.7 | 50 |  |  | 
51 | O=S(=O)(N1CCOCC1)N1CCN(Cc2ccccc2F)CC1 | 0.958 | 21 | 676 | 36 (≈ 105 µM) |  | 
52 | Cc1oc(C)c(C(=O)Nc2ccn(C)n2)c1C | 0.597 | 75.4 | 93.7 | 36.7 (≈ 157 µM) |  | 
53 | O=C(CCc1nnc(-c2ccsc2)o1)N1CCCc2cc(F)c(F)cc21 | 0.866 | 108 | 1980 | 2.08 (≈ 5.54 µM) |  | 
54 | Nc1nn(C(=O)Cc2ccc(F)cc2)c2cccc(F)c12 |  | 16.7 | 62.9 |  |  | 
55 | Cc1nc(C2(NCc3cccc(C#N)c3)CCCC2)no1 | 0.681 | 13.3 | 505 | 47.6 (≈ 169 µM) |  | 
56 | CCCN(C)C(=O)Nc1cccc(-c2nnc3n2CCCCC3)c1 | 92.4 | ≤ 4.74 | 44.5 | 39.4 (≈ 120 µM) |  | 
57 | Clc1ccc(Cc2nc(-c3cccnc3)no2)cc1 | 0.458 | 26.9 | 219 | 16.5 (≈ 60.7 µM) |  | 
